Laboratory results from PMC5700923, “Second messenger analogues highlight unexpected substrate sensitivity of CD38: total synthesis of the hybrid “L-cyclic inosine 5′-diphosphate ribose”” (Scientific Reports, 2017).

Assays:
[1] = biological target: T1, CD38 (shCD38) (Homo sapiens, UniProt P28907); test: inhibition of cADPR hydrolysis, fluorimetric cycling assay; assay type: biochemical; details: read-out: L-Ribose / IC50
T1 construct: human CD38 catalytic domain (shCD38)
T1 sequence (P28907 45-300 limits assumed): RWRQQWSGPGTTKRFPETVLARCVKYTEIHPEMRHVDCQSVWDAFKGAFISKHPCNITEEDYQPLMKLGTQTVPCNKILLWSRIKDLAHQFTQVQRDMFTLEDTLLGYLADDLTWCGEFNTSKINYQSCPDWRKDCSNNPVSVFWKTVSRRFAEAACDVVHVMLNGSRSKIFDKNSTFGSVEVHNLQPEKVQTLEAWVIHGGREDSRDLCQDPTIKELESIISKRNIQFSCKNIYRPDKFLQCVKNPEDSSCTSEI

[2] = biological target: T2, Aplysia cyclase (Aplysia californica, UniProt P29241); test: X-ray crystallography, […] cIDPR (authors' unpublished data, Supplementary Figure S2); assay type: binding
T2 construct: wild-type
T2 sequence (P29241 25-282): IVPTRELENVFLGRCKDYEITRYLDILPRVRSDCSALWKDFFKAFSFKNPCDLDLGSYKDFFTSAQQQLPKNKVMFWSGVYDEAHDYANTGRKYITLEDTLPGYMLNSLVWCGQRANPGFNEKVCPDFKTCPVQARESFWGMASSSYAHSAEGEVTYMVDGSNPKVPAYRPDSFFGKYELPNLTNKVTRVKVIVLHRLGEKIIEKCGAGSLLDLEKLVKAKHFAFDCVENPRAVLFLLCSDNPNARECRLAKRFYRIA

[3] = biological target: T1, CD38 (shCD38); test: inhibition of cADPR hydrolysis, fluorimetric cycling assay; also hydrolysed by shCD38 (RP-HPLC); assay type: biochemical; details: read-out: L-Ribose / IC50

## Nc1nc2c(=O)n3cnc2n1[C@@H]1O[C@H](COP(=O)(O)OP(=O)(O)OC[C@@H]2O[C@H]3[C@@H](O)[C@H]2O)[C@@H](O)[C@H]1O [compound 7, 8-NH2-L-cIDPR]
[1]
  IC50: 21 ± 2 µM

## O=c1c2ncn3c2ncn1[C@@H]1O[C@H](COP(=O)(O)OP(=O)(O)OC[C@H]2O[C@@H]3[C@H](O)[C@@H]2O)[C@@H](O)[C@H]1O [compound 2, cIDPR]
[2]
  ligand species seen in crystal structure: both linear IDPR and the cyclic N1-cIDPR are present and close to each other, with cIDPR in an upside-down orientation

## O=c1c2ncn3c2ncn1[C@H]1O[C@@H](COP(=O)(O)OP(=O)(O)OC[C@H]2O[C@@H]3[C@H](O)[C@@H]2O)[C@H](O)[C@@H]1O [compound 5, L-cIDPR]
[3]
  IC50: 526 ± 36 µM
